Assay: Solubility of the thiolysine-modified peptides in the ligation buffer
Type: physicochemical
Conditions: Tris-HCl pH 7.5 buffer used during the ligation reaction
Source text: This is not surprising as this peptide is made up for ≈50% of hydrophobic amino acids and contains 3 beta-strands in the native PCNA protein (see Supporting Information). Besides performing the ubiquitin ligations with an excess of peptide (rxn 1-3 and 6-16, FIGS. 6 and 7), it was also observed that the use of (roughly) equimolar amounts of ubiquitin and peptide (rxn 4, 5 FIG. 6 and FIGS. 8-10) allowed ligation. In order to be able to develop the here presented ligation methodology for solid phase peptide synthesis, with the peptide being anchored to the solid support, it is important to fully consume all peptide. In order to confirm that a polar organic solvent is compatible with the reaction conditions, we repeated the ubiquitin ligation of the H2B peptide TKAVTK*YTSSK, using a DMSO stock of the peptide, up to a final concentration of 10% DMSO (rxn 14-16, FIG. 7).

For “GDAWISC*AK*DGVKFSASGELGNGNIKLSQ [Peptide 1]”, the solubility was “only soluble in polar organic solvents such as DMF and DMSO”.
